Tests used:
[1] = test system: Clostridium authoethanogenum; assay: Syngas fermentation in stirred tank bioreactor, effect of vitamin feed rates on specific ethanol productivity; format: cell-based; settings: Experiment 5
Source text: A synthesis gas containing CO, CO2 and H2 was continuously introduced into a stirred tank bioreactor containing Clostridium ljungdahlii (Experiments 1-4) or Clostridium authoethanogenum (Experiment 5), along with a liquid medium containing trace metals and salts as described herein. Vitamins were provided using dedicated feed lines. A New Brunswick Bioflow reactor containing the fermentation medium was started with actively growing Clostridium ljungdahlii (Experiments 1-5) or with Clostridium authoethanogenum (Experiment 6). The rate of agitation of the reactor was set to 800 rpm at the start of the experiment and this agitation rate was maintained throughout the experiment. Feed gas flow to the reactor was increased based on the H2 and CO uptake of the culture. Temperature in the bioreactor was maintained at about 38° C. throughout the experiment. Samples of gas feed into the bioreactor and off-gas from the bioreactor and fermentation broth in the bioreactor were taken at intervals, for example feed gas, off-gas and fermentation broth were sampled about daily, once two hours and once four hours respectively. Above samples were analyzed for consumption or production of various gas components, broth acetic acid concentration, broth ethanol concentration and the optical density (cell density) of the culture. The unaroused volume of the reactor was maintained between 3000 to 3250 ml throughout the experiment. Further, the gas flow to the reactor was maintained at required gas flow rates by using a mass flow controller. The feed […] composition was 23% H2, 35% CO, 29% CO2 and 13% N2. In the following reactor runs, vitamins biotin, thiamine and pantothenate were feed to the reactor using a dedicated stream. Steady state conditions were maintained for a period of time greater than 5 times the cell retention time. Cell mass was essentially replaced 5 times before data collection phase started. After data set was collected, vitamin feed rate was adjusted, adjustment phase was repeated, and next data set was collected. Adjustment phase refers to an amount of time necessary for the culture to equilibrate to a change. In this experiment culture was allowed at least a 3-day adjustment phase. A cell recycle system (CRS) was attached to the reactor before the start of the experiment. During the experiment, medium feed rate was 3.0 to 6.0 ml/min, and through the CRS, 0-5 ml/min permeate was drawn out from the reactor. The following tables describe the vitamin feed rates and specific ethanol productivity (SEP). Experiment 5: Fermentation with Clostridium authoethanogenum with Biotin (B7) and Thiamine (B1) feeds held at lower base levels with increasing Pantothenate (B5) Feeds.

Clostridium ljungdahlii = assay: as above; format: cell-based; settings: Experiment 4; vitamin B5 feed held constant below about 30 ug/g of cells produced, vitamin B1 and B7 feeds increased
Source text: A synthesis gas containing CO, CO2 and H2 was continuously introduced into a stirred tank bioreactor containing Clostridium ljungdahlii (Experiments 1-4) or Clostridium authoethanogenum (Experiment 5), along with a liquid medium containing trace metals and salts as described herein. Vitamins were provided using dedicated feed lines. A New Brunswick Bioflow reactor containing the fermentation medium was started with actively growing Clostridium ljungdahlii (Experiments 1-5) or with Clostridium authoethanogenum (Experiment 6). The rate of agitation of the reactor was set to 800 rpm at the start of the experiment and this agitation rate was maintained throughout the experiment. Feed gas flow to the reactor was increased based on the H2 and CO uptake of the culture. Temperature in the bioreactor was maintained at about 38° C. throughout the experiment. Samples of gas feed into the bioreactor and off-gas from the bioreactor and fermentation broth in the bioreactor were taken at intervals, for example feed gas, off-gas and fermentation broth were sampled about daily, once two hours and once four hours respectively. Above samples were analyzed for consumption or production of various gas components, broth acetic acid concentration, broth ethanol concentration and the optical density (cell density) of the culture. […]

## CC(C)(CO)[C@@H](O)C(=O)NCCC(=O)O [Pantothenate (B5), pantothenate]
[1]; feeds pantothenate 48.47, biotin 29.54, thiamine 23.10 μg/g cells produced
  SEP (specific ethanol productivity): 8.08 g//day/g cells
[1]; feeds pantothenate 58.08, biotin 26.65, thiamine 20.84 μg/g cells produced
  SEP (specific ethanol productivity): 8.24 g//day/g cells
[1]; feeds pantothenate 62.90, biotin 23.04, thiamine 18.01 μg/g cells produced
  SEP (specific ethanol productivity): 8.51 g//day/g cells
[1]; feeds pantothenate 68.78, biotin 25.19, thiamine 19.70 μg/g cells produced
  SEP (specific ethanol productivity): 9.39 g//day/g cells
[1]; feeds pantothenate 70.67, biotin 21.62, thiamine 16.91 μg/g cells produced
  SEP (specific ethanol productivity): 9.70 g//day/g cells
[1]; feeds pantothenate 81.90, biotin 18.79, thiamine 14.69 μg/g cells produced
  SEP (specific ethanol productivity): 9.98 g//day/g cells
[1]; vitamin B5 feed from about 48 to about 82 ug/g of cells produced, vitamin B1 and B7 feeds under 30, further under 20 ug/g of cells produced
  specific ethanol productivity increase: about 24%

## Cc1ncc(C[n+]2csc(CCO)c2C)c(N)n1 [vitamin B1, thiamine]
Clostridium ljungdahlii
  effect of increasing feed rate on specific ethanol productivity: did not increase specific ethanol productivity

## O=C(O)CCCC[C@@H]1SC[C@@H]2NC(=O)N[C@@H]21 [vitamin B7, biotin]
Clostridium ljungdahlii
  effect of increasing feed rate on specific ethanol productivity: did not increase specific ethanol productivity

Reference: patent US20220177932A1, “PROCESS AND COMPOSITION FOR CONTROLLING ETHANOL PRODUCTION” (priority 2020, published 2022)
